What was measured:
Format in all cases: physicochemical
[1] = Storage stability of FPF of binary DPI formulations at 25° C./75% RH
Protocol: All formulations were stored for one and three months at 25° C./75% RH. The FPF of the formulation containing micronized fluticasone propionate decreased by almost 50% after storage for one month and almost 70% after storage for three months compared to the FPF at t=0. However, the FPF of formulations containing particles prepared by the current invention were not as affected following storage in stress conditions. The FPF of sample 3 decreased 6% after storage for one month and decreased 3% after storage for three months compared to the FPF at t=0. The FPF of sample 2 decreased 7% after one months storage and 28% after three months storage compared to the FPF at t=0. There was a small yet statistically significant decrease, 29%, in the fine particle fraction of the formulation containing sample 4 which was prepared by alternative precipitation approach after one month with a decrease of 24% after 3 months storage compared to the FPF at t=0. This may be related to the planar morphology of the particles, and therefore, the particles are likely to develop greater adhesion to the lactose as result of capillary forces. It is clear that the FPF of samples 2 and 3 maintained a higher FPF than the micronized sample or sample 4 when stored for one or three months in the conditions described. The FPF of samples 2 and 3 decreased by a smaller percentage than the micronized sample when stored for one or three months in the conditions described. […] Sample 4 has a much lower FPF than samples 2 and 3 after storage for one or three months.

[2] = Cohesive-adhesive balance (CAB) by AFM colloid probe; settings: for adhesive FP-Lactose interactions, times greater than cohesive FP-FP interactions (CAB analysis): equivalent contact geometry, 20° C., 45% RH; for adhesiveness to lactose (FIG. 29): comparison between batches
From the text: The cohesive-adhesive balance (CAB) approach of the AFM colloid probe technique is a development that enables direct quantification of the cohesive and adhesive nature—“the force balance” of an API within a formulation. It is a commercially available screening tool in determining the cohesive/adhesive force interactions between potential formulation components using milligrams or less of material.
The CAB approach measures the forces of interaction between API particles, mounted as colloid AFM probes, and well-defined crystalline surfaces of the API and carrier substrates. A CAB plot generated from the interaction of a number of probes allows a characteristic measurement of the cohesive nature of the API, in relation to its adhesive propensity with an excipient material to be quantified. The development of the CAB approach has overcome a number of the limitations associated with conventional AFM colloid probe methodologies, including issues regarding instrumental validation and the need to determine the true area of contact of the interacting surfaces. […] Drug-carrier combinations with a higher CAB ratio, such as >1, results in a higher fine particle fraction (FPF) upon aerosolisation, despite potential difference between the carriers in terms of size, shape, roughness and flowability. Drug-carrier combinations with a lower CAB ratio, such as, <1 result in greater […] of the active particle to the carrier, therefore the active particle is more likely to remain attached to the carrier. This means that in an inhaled composition, the active particle which remains attached to the carrier particle may not reach the lung and may be deposited in the throat or on the tongue. Preferably, the particles produced according to the present invention have much lower cohesiveness than particles prepared by other methods including micronization and milling. With respect to a measure of cohesiveness, since all substrates will be different with respect to their cohesive and adhesive properties, the CAB ratio is a dimensionless value which is a more useful measure for comparison. Preferably, the particles produced according to the present invention have CAB ratios with the carrier particles of 0.8-1.3, more preferably 0.9-1.2, more preferably, 1.0- 1.1. This is a careful balance between the cohesion of the drug with itself and the adhesion of the drug with the carrier.
The cohesive-adhesive balance (CAB) of micronized Fluticasone Propionate (FP) and batches of FP engineered by the method of the current invention (samples 2 and 3) and by a different method exemplified in WO 2008/114052 A1 (sample 4), as described in Example 1, were determined with respect to crystalline substrates of FP and lactose monohydrate. The CAB force balance of the different batches with respect to the crystalline substrates was determined as follows:
Particles (n=3) of all batches of FP were attached onto standard V-shaped tipless cantilevers (DNP-020, DI, CA, USA) using an epoxy resin glue (Araldite, Cambridge, UK).
Smooth crystals of lactose were produced on cooling of a heated saturated droplet sandwiched between cover slips. Smooth drug crystals were produced using sitting-drop anti-solvent crystallisation, in which the active was dissolved in acetone and the anti-solvent employed was water.
Individual force curves (n=1024) were conducted over a 10 μm×10 μm area at a scan rate of 4 Hz and a compressive load of 40 nN. Environmental conditions were maintained at a constant temperature of 20° C. (±1.5 ° C.) and relative humidity 45±3%.

[3] = Surface roughness by TappingMode AFM; settings: 1 μm×1 μm areas, SD in brackets; for Ra(± nm): mean surface roughness; for Rq(± nm): root mean square roughness
Protocol: The degree of corrugation and surface morphology of samples was quantified using AFM. The surface topography and roughness measurements of particles of this invention were investigated using a Nanoscope IIIa controller, a Multimode AFM and a J-type scanner (all DI, Santa Babara, Calif., USA). All AFM surface topography images were recorded in Tapping Mode operation, in which, imaging was conducted using TESP Olympus tips (Di, Cambridge, UK) at a scan rate of 1 Hz. Surface roughness measurements were analysed over a 1 μm×1 μm area. To quantify the variations in the surface properties of the crystal surfaces, the root-mean-squared surface roughness measurement (Rq) and the mean surface roughness (Ra) of the height deviations of the surface asperities were computed.
The surface roughness and surface area of micronized Fluticasone Propionate (FP), sample 3 of FP prepared by the current invention and sample 4 of FP, as described in Example 2, were determined using atomic force microscopy (AFM) and BET surface area analysis, respectively. The roughness of imaged areas was quantified using the mean (Ra) and root mean square (Rq) of the variations in the height of the imaged surface. Furthermore, the surface area of samples was determined by a five-point BET nitrogen adsorption analysis.
The surface topography of the FP samples was investigated with TappingMode™ atomic force microscopy (AFM) using a Multimode AFM, J-type scanner, Nanoscope IIIa controller (all from DI, Cambridge, UK) and a silicon tip (model number OMCL-AC240TS, Olympus, Japan) to image three randomly selected 1 μm×1 μm square areas on the surface of particles of each material with a resolution of 512×512 pixels and a scan rate of 1 Hz. The roughness of imaged areas was quantified using the mean (Ra) and root mean square (Rq) of the variations in the height of the imaged surface, as calculated by the AFM software using the following equations: […]
where np is the number of points in the image and yi is the distance of point i from the centre line.

[4] = storage one month at 25° C./75% RH
[5] = storage three months at 25° C./75% RH

| decrease of FPF compared to FPF at t=0 [1, 4] | decrease of FPF compared to FPF at t=0 [1, 5] | adhesion values (FP-lactose interaction) ([2]; AFM force measurement) | adhesive FP-Lactose interactions, times greater than cohesive FP-FP interactions (CAB analysis) ([2]; listed as sample 2 FP) | adhesive FP-Lactose interactions, times greater than cohesive FP-FP interactions (CAB analysis) ([2]; listed as sample 3 FP) | Ra(± nm) [3] | Rq(± nm) [3] | adhesiveness to lactose (FIG. 29) [2] | adhesive FP-Lactose interactions, times greater than cohesive FP-FP interactions (CAB analysis) ([2]; listed as sample 4 FP) | decrease of FPF compared to FPF at t=0 ([1]; storage one month at 25° C./75% RH, listed as micronized fluticasone propionate) | decrease of FPF compared to FPF at t=0 ([1]; storage three months at 25° C./75% RH, listed as micronized fluticasone propionate) | adhesion values ([2]; AFM force measurement) | adhesive FP-Lactose interactions, times greater than cohesive FP-FP interactions (CAB analysis) [2] | SMILES |
| --- | --- | --- | --- | --- | --- | --- | --- | --- | --- | --- | --- | --- | --- |
| 7% | 28% | 128-169 nN | 1.17 |  |  |  |  |  |  |  |  |  | CCC(=O)O[C@]1(C(=O)SCF)[C@H](C)C[C@H]2[C@@H]3C[C@H](F)C4=CC(=O)C=C[C@]4(C)[C@@]3(F)[C@@H](O)C[C@@]21C [Sample 2, Fluticasone propionate] |
| 6% | 3% | 35-89 nN |  | 1.16 | 53.79 (2.11) nm | 72.11 (1.35) nm |  |  |  |  |  |  | CCC(=O)O[C@]1(C(=O)SCF)[C@H](C)C[C@H]2[C@@H]3C[C@H](F)C4=CC(=O)C=C[C@]4(C)[C@@]3(F)[C@@H](O)C[C@@]21C [Sample 3, Fluticasone propionate] |
| 29% | 24% | 400-800 nN |  |  | 11.20 (1.55) nm | 16.52 (3.13) nm | least adhesive to lactose and SX | almost equal |  |  |  |  | CCC(=O)O[C@]1(C(=O)SCF)[C@H](C)C[C@H]2[C@@H]3C[C@H](F)C4=CC(=O)C=C[C@]4(C)[C@@]3(F)[C@@H](O)C[C@@]21C [Sample 4, fluticasone propionate, reference compound] |
|  |  |  |  |  | 30.97 (12.25) nm | 45.07 (11.76) nm | significantly more adhesive to lactose |  | ~50% | ~70% | 169 to 249 nN | 1.36 | CCC(=O)O[C@]1(C(=O)SCF)[C@H](C)C[C@H]2[C@@H]3C[C@H](F)C4=CC(=O)C=C[C@]4(C)[C@@]3(F)[C@@H](O)C[C@@]21C [micronized FP, Fluticasone Propionate] |

From patent US20110146678A1, “PROCESS FOR IMPROVING CRYSTALLINITY” (priority 2008, published 2011)
